Reference: US6906098B2, “Mixed steroidal 1,2,4,5-tetraoxane compounds and methods of making and using thereof” (priority 2002, dated 2005)
Converted amounts (≈) assume the structure as drawn. “And” between values parts separate entries of the source, which are not always exact repeats. Identical values can stand only once. Like-named read-outs stand apart in the source and are kept apart here.

How the values were obtained:
SR leukemia cell line = test: NCI in vitro antiproliferative screen (SRB), SR; type: cell-based, human; conditions: after 48 h; for GI50 / CC50: Homo sapiens; for CC50: read-out: LC50 (the source's name)
Experimental: (§1) In preliminary tests, four compounds (1B14a, 1C44, 1C45, and 1C46) were chosen by NIH-NCI for in vitro screening. See Drug discovery and development program, National Cancer Institute, Bethesda, (NCI), http://dtp.nci.nih.gov. All tetraoxanes were evaluated in the 3-cell line (lung—NCI-H460, breast—MCF7, CNS-SF-268) one dose primary anticancer assay: growth percentage after 48 hours, at 100 μM concentration of tested compound. Two compounds were eliminated at this step (1B14a and 1C46), while the acid 1C44 and primary amide 1C45 were evaluated against the full panel of 60 human tumor cell lines starting with 10^−4 M concentration of investigated compounds.
(§2) The activity of numerous compounds of the present invention against various cancer cell lines was submitted to the Developmental Therapeutics Program (DTP) at the National Cancer Institute (NCI) of the National Institutes of Health (NIH) for screening.
(§3) The DTP Human Tumor Cell Line Screen utilizes 60 different human tumor cell lines, representing leukemia, melanoma and cancers of the lung, colon, brain, ovary, breast, prostate, and kidney according to conventional methods known in the art. See e.g. Alley, M. C., et al. (1988) Cancer Research 48:589-601; Grever, M. R., et al. (1992) Seminars in Oncology 19(6):622-638; and Boyd, M. R., and Paull, K. D. (1995) Drug Development Research 34:91-109, which are herein incorporated by reference.
(§4) Generally, the human tumor cell lines of the cancer screening panel are grown in RPMI 1640 medium containing 5% fetal bovine serum and 2 mM L-glutamine. For a typical screening experiment, cells are inoculated into 96 well microtiter plates in 100 μl at plating densities ranging from 5,000 to 40,000 cells/well depending on the doubling time of individual cell lines. After cell inoculation, the microtiter plates are incubated at 37° C., 5% CO2, 95% air and 100% relative humidity for 24 hours prior to addition of the compounds to be tested.
(§5) After 24 hours, two plates of each cell line are fixed in situ with TCA, to represent a measurement of the cell population for each cell line at the time of drug addition (Tz). Experimental drugs are solubilized in dimethyl sulfoxide at 400-fold the desired final maximum test concentration and stored frozen prior to use. At the time of drug addition, an aliquot of frozen concentrate is thawed and diluted to twice the desired final maximum test concentration with complete medium containing 50 μg/ml gentamicin. Additional four, 10-fold or ½ log serial dilutions are made to provide a total of five drug concentrations plus control. Aliquots of 100 μl of these different drug dilutions are added to the appropriate microtiter wells already containing 100 μl of medium, resulting in the required final drug concentrations.
(§6) Following drug addition, the plates are incubated for an additional 48 hours at 37° C., 5% CO2, 95% air, and 100% relative humidity. For adherent cells, the assay is terminated by the addition of cold TCA. Cells are fixed in situ by the gentle addition of 50 μl of cold 50% (w/v) TCA (final concentration, 10% TCA) and incubated for 60 minutes at 4° C. The supernatant is discarded, and the plates are washed five times with tap water and air dried. Sulforhodamine B (SRB) solution (100 μl) at 0.4% (w/v) in 1% acetic acid is added to each well, and plates are incubated for 10 minutes at room temperature. […]

[1] = test system: IGROV1 ovarian cancer cell line; test: NCI in vitro antiproliferative screen (SRB), IGROV1; type: cell-based, human; conditions: IGROV1, after 48 h
Experimental: as §1, §2, §3, §4, §5, §6

[2] = test system: KM-12 colon cancer cell line; test: NCI in vitro antiproliferative screen (SRB), KM-12; type: cell-based, human; conditions: KM-12, after 48 h; for GI50 / CC50: Homo sapiens, KM12; for CC50: read-out: LC50 (the source's name)
Experimental: as §1, §2, §3, §4, §5, §6

[3] = test system: MALME-3M melanoma cancer cell line; test: NCI in vitro antiproliferative screen (SRB), MALME-3M; type: cell-based, human; conditions: for GI50 / CC50: Homo sapiens; for CC50: read-out: LC50 (the source's name)
Experimental: as §1, §2, §3, §4, §5, §6

[4] = test system: TK-10 renal cancer cell line; test: NCI in vitro antiproliferative screen (SRB), TK-10; type: cell-based, human; conditions: TK-10, after 48 h; for GI50 / CC50: Homo sapiens; for CC50: read-out: LC50 (the source's name)
Experimental: as §1, §2, §3, §4, §5, §6

[5] = test system: UO-31 renal cancer cell line; test: NCI in vitro antiproliferative screen (SRB), UO-31; type: cell-based, human; conditions: UO-31, after 48 h; for GI50 / CC50: Homo sapiens; for CC50: read-out: LC50 (the source's name)
Experimental: as §1, §2, §3, §4, §5, §6

in vitro = conditions: African green monkey, Cytotoxcity (IC50), Table 3; VERO cell line, 72 hours exposure
[6] = test system: Mycobacterium tuberculosis H37Rv (ATCC 27294); test: Primary screen, Microplate Alamar Blue Assay (MABA), percent inhibition; type: cell-based; conditions: Mycobacterium tuberculosis, primary screening at 6.25 μg/ml
Summary of the method: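 Single-concentration screen at 6.25 μg/ml (or molar equivalent of the heaviest congener in a series) against H37Rv grown in BACTEC 12B medium. Growth read by Microplate Alamar Blue Assay, reported as percent inhibition.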

M. tuberculosis H37Rv = test: Minimum inhibitory concentration (MIC) in the MABA; type: cell-based, Mycobacterium tuberculosis
Summary of the method: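 Run under the NIAID TAACF screening program against M. tuberculosis by fluorescence read-out. MIC taken as the lowest concentration giving 90% reduction in fluorescence relative to controls.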

VERO cells [7] = conditions: ratio of IC50 in VERO cells to MIC (M. tuberculosis H37Rv)
[8] = test system: Plasmodium falciparum chloroquine-susceptible strain D6; test: In vitro antimalarial drug susceptibility assay (radiolabeled hypoxanthine incorporation), strain D6; type: cell-based; conditions: for Strain D6 IC50: growth inhibition, chloroquine-susceptible strain D6, 66 h incubation
[9] = test system: Plasmodium falciparum chloroquine-resistant strain W2; test: microbe, parasite or virus in culture; type: cell-based; conditions: for Strain W2 IC50: growth inhibition, chloroquine-resistant strain W2, 66 h incubation; for IC50: Plasmodium falciparum, W2, 66 h, read-out: Strain W2 IC50, growth inhibition, chloroquine-resistant strain W2, 66 h incubation
[10] = test system: D6 and W2 P. falciparum clones; type: cell-based, Plasmodium falciparum; conditions: IC50 (W2)/IC50 (D6) ratio
VERO cells [11] = test: cells; conditions: Chlorocebus sabaeus, Table 5
[12] = MALME-3M, after 48 h, read-out: GI50
[13] = Table 3, H37Rv, read-out: Inhibition (%)
[14] = Table 5, Alamar assay, read-out: % Inhib
[15] = Mycobacterium tuberculosis, H37RV, Table 3, H37Rv, read-out: MIC
[16] = Mycobacterium tuberculosis, H37RV, Table 5, Alamar assay, M. tuberculosis H37Rv, read-out: MIC

Structure (SMILES) | GI50 (SR leukemia cell line) [µM] | CC50 (SR leukemia cell line) [µM] | GI50 ([1]; Homo sapiens, IGROV-1) [µM] | TGI [1] [µM] | GI50 [2] [µM] | CC50 [2] [µM] | TGI [2] [µM] | GI50 [3, 12] [µM] | CC50 ([3]; MALME-3M, after 48 h) [µM] | TGI ([3]; MALME-3M, after 48 h) [µM] | GI50 [4] [µM] | CC50 [4] [µM] | TGI [4] [µM] | GI50 [5] [µM] | CC50 [5] [µM] | TGI [5] [µM] | inhibition at 6.25 µg/mL [6, 14] [%] | MIC (M. tuberculosis H37Rv; [16]) [µg/mL] | SI (selectivity index) (VERO cells [7]) | Resistance Index [10] | other results
CC(=O)O[C@H]1C(=O)[C@@]2(C)[C@H]([C@H](OC(=O)c3ccccc3)[C@]3(O)C[C@H](OC(=O)[C@H](O)[C@@H](NC(=O)c4ccccc4)c4ccccc4)C(C)=C1C3(C)C)[C@]1(OC(C)=O)CO[C@@H]1C[C@@H]2O [Paclitaxel, reference compound] | 0.079 | 63.1 | 0.032 | 79.4 | 0.0079 | 100 | 79.4 | 2.51 | 79.4 | 50.1 | 0.25 | 79.4 | 50.1 | 1.58 | 100 | 39.8 | – | – | – | – | TGI (SR leukemia cell line): 63.1 µM
C[C@@H]1CC[C@H]2[C@@H](C)C(=O)O[C@@H]3O[C@@]4(C)CC[C@@H]1[C@]32OO4 [Artemisinin, reference compound] | 100 | 100 | 79.4 | 100 | 100 | 100 | 100 | 100 | 100 | 100 | 100 | 100 | 100 | 79.4 | 100 | 100 | – | – | – | – | TGI (SR leukemia cell line): 100 µM
CNC(=O)CCC(C)[C@H]1CCC2C3C(C[C@H](OC(C)=O)[C@@]21C)[C@@]1(C)CCC2(C[C@H]1C[C@H]3OC(C)=O)OOC1(CCC(C)CC1)OO2 (stereo partly drawn) [18/1C27, N-Methyl-7α,12α-diacetoxy-5β-cholan-24-amide-3-spiro-6′-(1′,2′,4′,5′-tetraoxacyclohexane)-3′-spiro-1″-((4″R)-methyl)cyclohexane] | – | – | – | – | – | – | – | – | – | – | – | – | – | – | – | – | 98 | 6.25 (≈ 9.65 µM) | 0.91 | 0.61 | IC50 (in vitro): 5.69 µg/mL and 8.78 µM; inhibition at 6.25 µg/mL [6, 13]: 98%; MIC (M. tuberculosis H37Rv; [15]): 6.25 µg/mL and 9.65 µM; Strain D6 IC50 [8]: 0.00386 µg/mL; Strain W2 IC50 [9]: 0.00234 µg/mL
CC(=O)O[C@H]1CC2C(C3CC[C@H](C(C)CCC(N)=O)[C@]31C)[C@H](OC(C)=O)C[C@@H]1CC3(CC[C@]21C)OOC1(CCC(c2ccccc2)CC1)OO3 (single isomer, unassigned) [Compound 1C45, 7α,12α-Diacetoxy-5β-cholan-24-amide-3-spiro-6′-(1′,2′,4′,5′-tetraoxacyclohexane)-3′-spiro-1″-((4″R or S)-phenyl)cyclohexane] | 0.29 | 100 | 0.295 | 1.11 | 1.19 | 7.15 | 2.92 | 0.02 | 37.3 | 3.99 | 2.7 | 8.07 | 4.66 | 0.36 | 4.57 | 1.35 | 93 | 6.25 (≈ 8.98 µM) | – | 1.02 | inhibition at 6.25 µg/mL [6, 13]: 93%; MIC (M. tuberculosis H37Rv; [15]): 6.25 µg/mL (≈ 8.98 µM); Strain D6 IC50 [8]: 0.00719 µg/mL; GI50 ([3]; Malme-3M): 0.02 µM; Strain W2 IC50 [9]: 0.00736 µg/mL
CCC1CCC2(CC1)OOC1(CC[C@]3(C)C4C[C@H](OC(C)=O)[C@@]5(C)C(CC[C@@H]5C(C)CCC(=O)NC)C4[C@H](OC(C)=O)C[C@@H]3C1)OO2 (single isomer, unassigned) [26/1C36, N-Methyl-7α,12α-Diacetoxy-5β-cholan-24-amide-3-spiro-6′-(1′,2′,4′,5′-tetraoxacyclohexane)-3′-spiro-1″-((4″R or S)-ethyl)cyclohexane] | – | – | – | – | – | – | – | – | – | – | – | – | – | – | – | – | 99 | – | 1.17 | 1.08 | MIC (M. tuberculosis H37Rv; Table 5, Alamar assay, M. tuberculosis H37Rv): 1.56 µg/mL (≈ 2.36 µM); IC50 (VERO cells [11]): 1.83 µg/mL (≈ 2.76 µM); Strain D6 IC50 [8]: 0.00477 µg/mL; IC50 [9]: 0.00517 µg/mL (≈ 0.00781 µM)
CCNC(=O)CCC(C)[C@H]1CCC2C3C(C[C@H](OC(C)=O)[C@@]21C)[C@@]1(C)CCC2(C[C@H]1C[C@H]3OC(C)=O)OOC1(CCCCC1C)OO2 (stereo partly drawn) [15/1C24, N-Ethyl-7α,12α-diacetoxy-5β-cholan-24-amide-3-spiro-6′-(1′,2′,4′,5′-tetraoxacyclohexane)-3′-spiro-1″-(2″-methyl)cyclohexane] | – | – | – | – | – | – | – | – | – | – | – | – | – | – | – | – | 98 | 3.13 (≈ 4.73 µM) | 2.24 | 0.55 | IC50 (VERO cells [11]): 7.02 µg/mL (≈ 10.6 µM); IC50 ([8]; Plasmodium falciparum, D6, 66 h, read-out: Strain D6 IC50, growth inhibition, chloroquine-susceptible strain D6, 66 h incubation): 0.00837 µg/mL (≈ 0.0126 µM); IC50 [9]: 0.00461 µg/mL (≈ 0.00697 µM)
CC(=O)O[C@H]1CC2C(C3CC[C@H](C(C)CCC(=O)O)[C@]31C)[C@H](OC(C)=O)C[C@@H]1CC3(CC[C@]21C)OOC1(CCC(c2ccccc2)CC1)OO3 (single isomer, unassigned) [Compound 1C44, 7α,12α-Diacetoxy-5β-cholan-24-oic acid-3-spiro-6′-(1′,2′,4′,5′-tetraoxacyclohexane)-3′-spiro-1″-((4″R or S)-phenyl)cyclohexane] | 1.83 | 100 | 0.26 | 0.82 | 1.96 | 40.1 | 5.36 | 2.27 | 47 | 9.14 | 1.99 | 27 | 5.94 | 1.83 | 6.73 | 3.51 | 94 | 6.25 (≈ 8.97 µM) | 0.17 | 0.98 | inhibition at 6.25 µg/mL [6, 13]: 94%; TGI (SR leukemia cell line): 5.92 µM; LC50 (concentration killing 50% of cells) ([1]; Homo sapiens, IGROV-1): 3.76 µM; MIC (M. tuberculosis H37Rv; [15]): 6.25 µg/mL (≈ 8.97 µM); IC50 (VERO cells [11]): 1.07 µg/mL (≈ 1.54 µM); Strain D6 IC50 [8]: 0.00619 µg/mL; Strain W2 IC50 [9]: 0.00609 µg/mL
